According to patent US10966951B2, “Compositions and methods for lowering triglycerides in a subject having reduced kidney function” (Amarin Pharmaceuticals Ireland Limited, priority 2017, dated 2021):

Columns and labels:
[1] = Essential fatty acid parameters in RBC, 6-week AAMI study (Example 2); type: in vivo, human
Protocol: A single-center, 6-week, double-blind, randomized, parallel-group, placebo-controlled, dose-ranging pilot study was performed to evaluate the efficacy, tolerability, and safety of >96% E-EPA in subjects with subjective and objective memory impairment according to generally accepted criteria for Age-Associated Memory Impairment (“AAMI”). The primary objective of the study was to determine the effect of >96% E-EPA 1 g, 2 g, and 4 g daily, compared to placebo, on cognitive performance in subjects with AAMI.
Ninety-four subjects were randomized into one of six groups: 1 g E-EPA daily (n=23), 2 g E-EPA daily (n=24), 4 g E-EPA daily (n=24), 1 g placebo daily (n=7), 2 g placebo daily (n=8), and 4 g placebo daily (n=8). E-EPA was provided as 500 mg soft gel capsules containing >96% E-EPA and 0.2% dl-α-tocopherol as an antioxidant. Placebo capsules contained 467 mg of liquid paraffin and 0.2% dl-α-tocopherol. Ninety-one subjects completed the study. Two subjects in the 2 g E-EPA group and one subject in the 2 g placebo group discontinued the study.
Blood samples (10 mL) were collected at Visit 1 (screening) and at Visits 4, 5, and 6. Analysis was performed by MSR Lipid Analysis, Scottish Crop Research Institute, Dundee, UK. The screening sample acted as baseline for the EFA measurements. Lipid was extracted from plasma, serum, and RBC suspensions and converted into fatty acid methyl esters which were analyzed by gas chromatography to give fatty acid profiles as micrograms fatty acid per gram of sample ([…]) and normalized area percent.
RBC and plasma EFA data were collected at baseline, Day 14, 28, and 42 and summarized by visit for each treatment group. Change from baseline and percent change from baseline were also summarized. ANCOVA comparison of E-EPA dose groups and E-EPA versus placebo was performed.

[2] = system: patients with chronic kidney disease (eGFR<60 mL/min/1.73 m^2); assay: Renal parameters and safety in ANCHOR patients with CKD (Example 7); type: in vivo, human
Protocol: CVD-related (e.g., atherogenic) parameters were analyzed in a post-hoc study of 55 patients from the multi-center, placebo-controlled, randomized double-blind, 12-week study described in Example 1. These 55 patients have chronic kidney disease (e.g., eGFR<60 mL/min/1.73 m^2 for ≥3 months). There was no lower limit of eGFR specified.
19 patients were randomized to E-EPA and 36 patients were randomized to placebo. One patient in each group discontinued and was excluded from efficacy analyses (but not safety analyses). EPA levels in plasma and RBC were measured in 23 of the 55 patients. These measurements were taken on 7 of the patients randomized to E-EPA and on 16 of the patients that were randomized to the placebo.
The median difference in percent change from baseline between 4 g/day of E-EPA and placebo for the primary efficacy variable and additional assessments were estimated using the Hodges-Lehmann method (P values from the Wilcoxon rank-sum test for treatment comparisons). Using the Hodges-Lehmann method, departures from normal distribution were observed; for normally distributed parameters, an analysis of covariance model was used with least squares (LS) means and standard errors (SE). Missing values were imputed using the last-observation-carried-forward method. For all post hoc analyses, the alpha for statistical significance was 0.05.

CC/C=C\C/C=C\C/C=C\C/C=C\C/C=C\CCCC(=O)OCC [E-EPA, ethyl eicosapentaenoate]
AA Mean change from Baseline, Mean (SD) ([1]; 1 g daily, Day 14): −8.1 (21.95) μg/g | DGLA Mean change from Baseline, Mean (SD) ([1]; 1 g daily, Day 14): −2.7 (3.82) μg/g | DHA Mean change from Baseline, Mean (SD) ([1]; 1 g daily, Day 14): −4.6 (9.76) μg/g | EPA/AA Mean change from Baseline, Mean (SD) ([1]; 1 g daily, Day 14): 0.1 (0.04) | AA Mean change from Baseline, Mean (SD) ([1]; 1 g daily, Day 28): −17.0 (20.69) μg/g | DGLA Mean change from Baseline, Mean (SD) ([1]; 1 g daily, Day 28): −3.8 (3.31) μg/g | DHA Mean change from Baseline, Mean (SD) ([1]; 1 g daily, Day 28): −6.4 (11.57) μg/g | EPA/AA Mean change from Baseline, Mean (SD) ([1]; 1 g daily, Day 28): 0.1 (0.05) | DGLA Mean change from Baseline, Mean (SD) ([1]; 1 g daily, Day 42): −3.5 (4.51) μg/g | DHA Mean change from Baseline, Mean (SD) ([1]; 1 g daily, Day 42): −7.0 (12.20) μg/g | EPA/AA Mean change from Baseline, Mean (SD) ([1]; 1 g daily, Day 42): 0.1 (0.06) | DGLA Baseline Mean (SD) ([1]; 1 g daily): 23.0 (5.19) μg/g | EPA/AA Baseline Mean (SD) ([1]; 1 g daily): 0.1 (0.07) | AA LS Mean, 1 g versus 4 g ([1]; 1 g versus 4 g): 8.4 µg/g | DGLA LS Mean, 1 g versus 4 g ([1]; 1 g versus 4 g): 1.5 µg/g | DHA LS Mean, 1 g versus 4 g ([1]; 1 g versus 4 g): 1.0 µg/g | EPA/AA LS Mean, 1 g versus 4 g ([1]; 1 g versus 4 g): −0.18 | AA Mean change from Baseline, Mean (SD) ([1]; 2 g daily, Day 14): −3.1 (25.84) μg/g | DGLA Mean change from Baseline, Mean (SD) ([1]; 2 g daily, Day 14): −2.6 (3.54) μg/g | DHA Mean change from Baseline, Mean (SD) ([1]; 2 g daily, Day 14): −2.0 (9.46) μg/g | EPA/AA Mean change from Baseline, Mean (SD) ([1]; 2 g daily, Day 14): 0.2 (0.04) | DGLA Mean change from Baseline, Mean (SD) ([1]; 2 g daily, Day 28): −4.5 (3.58) μg/g | DHA Mean change from Baseline, Mean (SD) ([1]; 2 g daily, Day 28): −6.2 (9.34) μg/g | EPA/AA Mean change from Baseline, Mean (SD) ([1]; 2 g daily, Day 28): 0.02 (0.06) | DGLA Mean change from Baseline, Mean (SD) ([1]; 2 g daily, Day 42): −5.3 (3.65) μg/g | DHA Mean change from Baseline, Mean (SD) ([1]; 2 g daily, Day 42): −6.3 (9.42) μg/g | EPA/AA Mean change from Baseline, Mean (SD) ([1]; 2 g daily, Day 42): 0.3 (0.06) | DGLA Baseline Mean (SD) ([1]; 2 g daily): 23.0 (5.76) μg/g | EPA/AA Baseline Mean (SD) ([1]; 2 g daily): 0.1 (0.06) | AA LS Mean, 2 g versus 4 g ([1]; 2 g versus 4 g): 9.8 µg/g | DGLA LS Mean, 2 g versus 4 g ([1]; 2 g versus 4 g): 1.5 µg/g | DHA LS Mean, 2 g versus 4 g ([1]; 2 g versus 4 g): 1.0 µg/g | EPA/AA LS Mean, 2 g versus 4 g ([1]; 2 g versus 4 g): −0.11 | DGLA Mean change from Baseline, Mean (SD) ([1]; 4 g daily, Day 14): −5.3 (4.10) μg/g | DHA Mean change from Baseline, Mean (SD) ([1]; 4 g daily, Day 14): −6.9 (9.13) μg/g | EPA/AA Mean change from Baseline, Mean (SD) ([1]; 4 g daily, Day 14): 0.3 (0.07) | DGLA Mean change from Baseline, Mean (SD) ([1]; 4 g daily, Day 28): −7.1 (4.63) μg/g | DHA Mean change from Baseline, Mean (SD) ([1]; 4 g daily, Day 28): −8.7 (11.63) μg/g | EPA/AA Mean change from Baseline, Mean (SD) ([1]; 4 g daily, Day 28): 0.4 (0.11) | DGLA Mean change from Baseline, Mean (SD) ([1]; 4 g daily, Day 42): −8.0 (4.98) μg/g | EPA/AA Mean change from Baseline, Mean (SD) ([1]; 4 g daily, Day 42): 0.4 (0.14) | DGLA Baseline Mean (SD) ([1]; 4 g daily): 24.0 (5.77) μg/g | EPA/AA Baseline Mean (SD) ([1]; 4 g daily): 0.1 (0.04) | nausea, nasopharyngitis, and arthralgia ([2]; 4 g/day): not reported by any patients | eGFR median difference in change from baseline compared with placebo ([2]; 4 g/day vs placebo, P=0.1983): −7.8% | serum creatinine median difference in change from baseline compared with placebo ([2]; 4 g/day vs placebo, P=0.1983): 6.5% | BUN median difference in change from baseline compared with placebo ([2]; 4 g/day vs placebo, P=0.5291): 5.5% | BUN median difference in change from baseline compared with placebo ([2]; 4 g/day vs placebo, P=0.5471): 1.0 mg/dL | patients reporting diarrhea ([2]; 4 g/day, 2 patients): 10.5% | patients reporting TEAE ([2]; 4 g/day, 11 of 19 patients): 57.9% | serum albumin change from baseline ([2]; 4 g/day, 12-week study): no significant median changes from baseline | BUN, median (IQR), baseline ([2]; 4 g/day, baseline): 24.5 (12.0) mg/dL | eGFR, median (IQR), baseline ([2]; 4 g/day, baseline): 55.0 (13.8) mL/min/1.73 m^2 | serum creatinine, median (IQR), baseline ([2]; 4 g/day, baseline): 1.2 (0.3) mg/dL | changes in serum creatinine, blood urea nitrogen (BUN), or eGFR from baseline to week 12 ([2]; 4 g/day, compared to placebo control): did not produce significant changes | BUN, median (IQR), week 12 ([2]; 4 g/day, week 12): 22.5 (11.0) mg/dL | eGFR, median (IQR), week 12 ([2]; 4 g/day, week 12): 56.0 (12.9) mL/min/1.73 m^2 | serum creatinine, median (IQR), week 12 ([2]; 4 g/day, week 12): 1.2 (0.4) mg/dL
